EP4635500A1, “THERAPEUTIC AGENT FOR BACTERIAL INFECTION” (Sumitomo Pharma Co., Ltd., priority 2022, dated 2024)
≈ marks a conversion by molar mass, not a printed value. Like-named read-outs stand apart in the source and are kept apart here.

Tested on: P. aeruginosa
Assay: MIC, broth microdilution, CDC/FDA Antibiotic Resistance Isolate Bank (Example 7, Tables 10, 15)
Type: cell-based
Conditions: for MIC: Pseudomonas aeruginosa, read-out: MIC
[1] = 26 metallo-carbapenemase-producing P. aeruginosa strains, β-lactamase inhibitor µg/mL in parentheses
[2] = 96 strains of P. aeruginosa, β-lactamase inhibitor µg/mL in parentheses

C[C@H]1COc2c(N3CCN(C)CC3)c(F)cc3c(=O)c(C(=O)O)cn1c23 [Levofloxacin, levofloxacin]
MIC against 26 metallo-carbapenemase-producing strains MIC50 [1]: 32 µg(mL) | MIC against 26 metallo-carbapenemase-producing strains MIC90 [1]: >64 µg(mL) | MIC against 96 strains of P. aeruginosa MIC50 [2]: 32 µg(mL) | MIC against 96 strains of P. aeruginosa MIC90 [2]: 64 µg(mL) | MIC (P. aeruginosa KUB No. 579, AR Bank # 447): 0.5 µg/mL (≈ 1.38 µM) | MIC (P. aeruginosa KUB No. 5083, AR Bank # 250): 64 µg/mL (≈ 177 µM) | MIC (P. aeruginosa KUB No. 5551, AR Bank # 54): 64 µg/mL (≈ 177 µM) | MIC (P. aeruginosa KUB No. 5561, AR Bank # 64): 32 µg/mL (≈ 88.6 µM) | MIC (P. aeruginosa KUB No. 5587, AR Bank # 90): 32 µg/mL (≈ 88.6 µM) | MIC (P. aeruginosa KUB No. 5589, AR Bank # 92): 64 µg/mL (≈ 177 µM) | MIC (P. aeruginosa KUB No. 5591, AR Bank # 94): 64 µg/mL (≈ 177 µM) | MIC (P. aeruginosa KUB No. 5592, AR Bank # 95): 32 µg/mL (≈ 88.6 µM) | MIC (P. aeruginosa KUB No. 5597, AR Bank # 100): > 64 µg/mL | MIC (P. aeruginosa KUB No. 5600, AR Bank # 103): 64 µg/mL (≈ 177 µM) | MIC (P. aeruginosa KUB No. 5602, AR Bank # 105): > 64 µg/mL | MIC (P. aeruginosa KUB No. 5605, AR Bank # 108): 64 µg/mL (≈ 177 µM) | MIC (P. aeruginosa KUB No. 5607, AR Bank # 110): 32 µg/mL (≈ 88.6 µM) | MIC (P. aeruginosa KUB No. 5608, AR Bank # 111): 32 µg/mL (≈ 88.6 µM) | MIC (P. aeruginosa KUB No. 5662, AR Bank # 229): 64 µg/mL (≈ 177 µM) | MIC (P. aeruginosa KUB No. 5663, AR Bank # 230): 32 µg/mL (≈ 88.6 µM) | MIC (P. aeruginosa KUB No. 5664, AR Bank # 231): 64 µg/mL (≈ 177 µM) | MIC (P. aeruginosa KUB No. 5665, AR Bank # 232): 8 µg/mL (≈ 22.1 µM) | MIC (P. aeruginosa KUB No. 5666, AR Bank # 23): 2 µg/mL (≈ 5.53 µM) | MIC (P. aeruginosa KUB No. 5667, AR Bank # 234): 8 µg/mL (≈ 22.1 µM) | MIC (P. aeruginosa KUB No. 5668, AR Bank # 235): 64 µg/mL (≈ 177 µM) | MIC (P. aeruginosa KUB No. 5669, AR Bank # 236): 16 µg/mL (≈ 44.3 µM) | MIC (P. aeruginosa KUB No. 5670, AR Bank # 237): 0.5 µg/mL (≈ 1.38 µM) | MIC (P. aeruginosa KUB No. 5671, AR Bank # 238): 0.5 µg/mL (≈ 1.38 µM) | MIC (P. aeruginosa KUB No. 5672, AR Bank # 239): 64 µg/mL (≈ 177 µM) | MIC (P. aeruginosa KUB No. 5673, AR Bank # 240): > 64 µg/mL | MIC (P. aeruginosa KUB No. 5674, AR Bank # 241): 32 µg/mL (≈ 88.6 µM) | MIC (P. aeruginosa KUB No. 5675, AR Bank # 242): 16 µg/mL (≈ 44.3 µM) | MIC (P. aeruginosa KUB No. 5676, AR Bank # 243): 16 µg/mL (≈ 44.3 µM) | MIC (P. aeruginosa KUB No. 5677, AR Bank # 244): 64 µg/mL (≈ 177 µM) | MIC (P. aeruginosa KUB No. 5678, AR Bank # 245): > 64 µg/mL | MIC (P. aeruginosa KUB No. 5679, AR Bank # 246): 32 µg/mL (≈ 88.6 µM) | MIC (P. aeruginosa KUB No. 5680, AR Bank # 247): 1 µg/mL (≈ 2.77 µM) | MIC (P. aeruginosa KUB No. 5681, AR Bank # 248): 16 µg/mL (≈ 44.3 µM) | MIC (P. aeruginosa KUB No. 5682, AR Bank # 249): 64 µg/mL (≈ 177 µM) | MIC (P. aeruginosa KUB No. 5684, AR Bank # 251): 8 µg/mL (≈ 22.1 µM) | MIC (P. aeruginosa KUB No. 5685, AR Bank # 252): 16 µg/mL (≈ 44.3 µM) | MIC (P. aeruginosa KUB No. 5686, AR Bank # 253): 1 µg/mL (≈ 2.77 µM) | MIC (P. aeruginosa KUB No. 5687, AR Bank # 254): 16 µg/mL (≈ 44.3 µM) | MIC (P. aeruginosa KUB No. 5688, AR Bank # 255): 32 µg/mL (≈ 88.6 µM) | MIC (P. aeruginosa KUB No. 5689, AR Bank # 256): 0.5 µg/mL (≈ 1.38 µM) | MIC (P. aeruginosa KUB No. 5690, AR Bank # 257): 64 µg/mL (≈ 177 µM) | MIC (P. aeruginosa KUB No. 5691, AR Bank # 258): 0.5 µg/mL (≈ 1.38 µM) | MIC (P. aeruginosa KUB No. 5692, AR Bank # 259): 0.5 µg/mL (≈ 1.38 µM) | MIC (P. aeruginosa KUB No. 5693, AR Bank # 260): 32 µg/mL (≈ 88.6 µM) | MIC (P. aeruginosa KUB No. 5694, AR Bank # 261): 4 µg/mL (≈ 11.1 µM) | MIC (P. aeruginosa KUB No. 5695, AR Bank # 262): 2 µg/mL (≈ 5.53 µM) | MIC (P. aeruginosa KUB No. 5696, AR Bank # 263): 2 µg/mL (≈ 5.53 µM) | MIC (P. aeruginosa KUB No. 5697, AR Bank # 264): 32 µg/mL (≈ 88.6 µM) | MIC (P. aeruginosa KUB No. 5698, AR Bank # 265): 64 µg/mL (≈ 177 µM) | MIC (P. aeruginosa KUB No. 5699, AR Bank # 266): 32 µg/mL (≈ 88.6 µM) | MIC (P. aeruginosa KUB No. 5700, AR Bank # 267): 32 µg/mL (≈ 88.6 µM) | MIC (P. aeruginosa KUB No. 5701, AR Bank # 268): 8 µg/mL (≈ 22.1 µM) | MIC (P. aeruginosa KUB No. 5702, AR Bank # 269): 32 µg/mL (≈ 88.6 µM) | MIC (P. aeruginosa KUB No. 5703, AR Bank # 270): 32 µg/mL (≈ 88.6 µM) | MIC (P. aeruginosa KUB No. 5704, AR Bank # 271): 32 µg/mL (≈ 88.6 µM) | MIC (P. aeruginosa KUB No. 5705, AR Bank # 272): 8 µg/mL (≈ 22.1 µM) | MIC (P. aeruginosa KUB No. 5747, AR Bank # 351): 8 µg/mL (≈ 22.1 µM) | MIC (P. aeruginosa KUB No. 5748, AR Bank # 352): 32 µg/mL (≈ 88.6 µM) | MIC (P. aeruginosa KUB No. 5749, AR Bank # 353): 32 µg/mL (≈ 88.6 µM) | MIC (P. aeruginosa KUB No. 5750, AR Bank # 354): 8 µg/mL (≈ 22.1 µM) | MIC (P. aeruginosa KUB No. 5751, AR Bank # 355): 32 µg/mL (≈ 88.6 µM) | MIC (P. aeruginosa KUB No. 5752, AR Bank # 356): 0.5 µg/mL (≈ 1.38 µM) | MIC (P. aeruginosa KUB No. 5753, AR Bank # 357): 32 µg/mL (≈ 88.6 µM) | MIC (P. aeruginosa KUB No. 5754, AR Bank # 358): 8 µg/mL (≈ 22.1 µM) | MIC (P. aeruginosa KUB No. 5755, AR Bank # 359): 8 µg/mL (≈ 22.1 µM) | MIC (P. aeruginosa KUB No. 5756, AR Bank # 360): 1 µg/mL (≈ 2.77 µM) | MIC (P. aeruginosa KUB No. 5785, AR Bank # 439): 32 µg/mL (≈ 88.6 µM) | MIC (P. aeruginosa KUB No. 5786, AR Bank # 440): 32 µg/mL (≈ 88.6 µM) | MIC (P. aeruginosa KUB No. 5787, AR Bank # 441): 0.5 µg/mL (≈ 1.38 µM) | MIC (P. aeruginosa KUB No. 5788, AR Bank # 443): 64 µg/mL (≈ 177 µM) | MIC (P. aeruginosa KUB No. 5789, AR Bank # 444): 32 µg/mL (≈ 88.6 µM) | MIC (P. aeruginosa KUB No. 5790, AR Bank # 445): 32 µg/mL (≈ 88.6 µM) | MIC (P. aeruginosa KUB No. 5793, AR Bank # 449): 32 µg/mL (≈ 88.6 µM) | MIC (P. aeruginosa KUB No. 5798, AR Bank # 455): 4 µg/mL (≈ 11.1 µM) | MIC (P. aeruginosa KUB No. 5799, AR Bank # 456): > 64 µg/mL | MIC (P. aeruginosa KUB No. 5800, AR Bank # 457): 64 µg/mL (≈ 177 µM) | MIC (P. aeruginosa KUB No. 5801, AR Bank # 458): 2 µg/mL (≈ 5.53 µM) | MIC (P. aeruginosa KUB No. 5802, AR Bank # 459): 8 µg/mL (≈ 22.1 µM) | MIC (P. aeruginosa KUB No. 5804, AR Bank # 862): 4 µg/mL (≈ 11.1 µM) | MIC (P. aeruginosa KUB No. 5805, AR Bank # 863): 64 µg/mL (≈ 177 µM) | MIC (P. aeruginosa KUB No. 5806, AR Bank # 864): > 64 µg/mL | MIC (P. aeruginosa KUB No. 5813, AR Bank # 508): 0.008 µg/mL (≈ 0.0221 µM) | MIC (P. aeruginosa KUB No. 5814, AR Bank # 509): 0.032 µg/mL (≈ 0.0886 µM) | MIC (P. aeruginosa KUB No. 5815, AR Bank # 510): 0.008 µg/mL (≈ 0.0221 µM) | MIC (P. aeruginosa KUB No. 5816, AR Bank # 511): 0.001 µg/mL (≈ 0.00277 µM) | MIC (P. aeruginosa KUB No. 5817, AR Bank # 512): 0.004 µg/mL (≈ 0.0111 µM) | MIC (P. aeruginosa KUB No. 5818, AR Bank # 513): > 0.064 µg/mL | MIC (P. aeruginosa KUB No. 5819, AR Bank # 514): 0.001 µg/mL (≈ 0.00277 µM) | MIC (P. aeruginosa KUB No. 5820, AR Bank # 515): > 0.064 µg/mL | MIC (P. aeruginosa KUB No. 5821, AR Bank # 516): 0.001 µg/mL (≈ 0.00277 µM) | MIC (P. aeruginosa KUB No. 5823, AR Bank # 518): 0.064 µg/mL (≈ 0.177 µM) | MIC (P. aeruginosa KUB No. 5831, AR Bank # 526): 0.032 µg/mL (≈ 0.0886 µM) | MIC (P. aeruginosa KUB No. 5832, AR Bank # 527): 0.032 µg/mL (≈ 0.0886 µM) | MIC (P. aeruginosa KUB No. 5833, AR Bank # 528): 0.032 µg/mL (≈ 0.0886 µM) | MIC (P. aeruginosa KUB No. 5834, AR Bank # 529): 0.016 µg/mL (≈ 0.0443 µM)
